Measured values published in PMC10797628.
Substitutions are numbered along the chain they refer to.

Columns and labels:
[1] = system: mouse model of fragile X syndrome; design: method as in PMID 32566916; details: cited from earlier work
[2] = design: method as in PMID 26011730; details: cited from earlier work
Y5.38F 5-HT1A receptor = target: T1, Y5.38F 5-HT1A receptor (Homo sapiens, UniProt P08908, Y195F); experiment: Radioligand binding, Y5.38F 5-HT1A
T1 sequence (P08908 1-422 Y195F): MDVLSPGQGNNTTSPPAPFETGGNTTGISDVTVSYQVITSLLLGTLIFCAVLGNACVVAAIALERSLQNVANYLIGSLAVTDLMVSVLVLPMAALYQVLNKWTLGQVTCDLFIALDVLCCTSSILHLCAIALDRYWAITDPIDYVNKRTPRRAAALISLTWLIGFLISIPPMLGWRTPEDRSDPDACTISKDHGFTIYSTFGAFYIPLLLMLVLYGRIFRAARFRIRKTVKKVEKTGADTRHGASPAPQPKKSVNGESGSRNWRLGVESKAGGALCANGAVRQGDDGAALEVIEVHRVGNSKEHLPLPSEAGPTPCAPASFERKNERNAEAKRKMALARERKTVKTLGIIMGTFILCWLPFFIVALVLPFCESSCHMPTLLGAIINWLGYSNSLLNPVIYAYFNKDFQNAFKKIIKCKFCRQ
Method: (§1) 48 hours after transfection with the desired receptor construct, cells were isolated for saturation and competition binding assays as previously described.[47],[48],[57] Saturation and competition radioligand binding assays were conducted in an assay buffer consisting of 50 mM Tris HCl, 10 mM MgCl2, and 0.1 mM EDTA in filtered deionized water. […] Briefly, 5–10 μg of the receptor protein, as determined by a Thermo Fisher Pierce BCA protein assay kit, was incubated with 8 concentrations of radioligand in triplicate to determine total binding. […] Nonspecific binding was determined as above for saturation assays.
(§2) For radioligand binding data, nonspecific binding was subtracted from the total binding to get specific binding. Saturation binding data was fit to the “binding saturation-specific binding with hill slope” model. Competition binding data were fit to the “binding competition-one-site fit Ki” non-linear regression model and transformed to pKi values, reported as mean ± SD.
(§3) is 50 mM Tris HCl, 10 mM MgCl2 and 0.1 mM EDTA in filtered deionized water.

Y5.38A 5-HT1A receptor = target: T2, Y5.38A 5-HT1A receptor (Homo sapiens, UniProt P08908, Y195A); experiment: Radioligand binding, Y5.38A 5-HT1A
T2 sequence (P08908 1-422 Y195A): T1 sequence (P08908 1-422 Y195F) with F195A
Method: as §1, §2, §3

Row | Compound | prosocial behaviors [1] | repetitive behaviors [1] | spontaneous seizures [1] | oral activity [2] | sedation [2] | Ki (Y5.38F 5-HT1A receptor) [nM] | Ki (Y5.38A 5-HT1A receptor) [nM]
1 | CN(C)[C@H]1CCc2c(cccc2-c2ccccc2F)C1 [(S)-FPT] | increased | reduced | reduced | orally active | did not cause sedation |  | 
2 | CN(C)[C@H]1CCc2c(cccc2-c2cccc3ccccc23)C1 [(S)-NAP] |  |  |  |  |  | 60.3 | 245
3 | Fc1ccccc1-c1cccc2c1CC[C@H](N1CCCC1)C2 [(S)-PFPT] |  |  |  |  |  | 1.74 | 0.955
